Laboratory results from US20260263624A1, “COMBINATION OF ANTIBODY-DRUG CONJUGATE AND CANCER THERAPY, AND USE THEREOF” (GENEQUANTUM HEALTHCARE (SUZHOU) CO., LTD., priority 2023, published 2026).

Tests used:
[1] = system: BT-474 cells (breast cancer HER2-high CDX model); assay: In vivo efficacy of GQ01 with chemotherapies in human breast cancer CDX model, BT-474 (Example 5); set-up: species or system BALB/c nude mice; details: GQ01 5 mg/kg single dose; for TGI (%): day 25; for Tumor volume (mm^3), Mean ± SEM: end day (day 25)
Method: I. Breast cancer tumor cells were passaged in vivo from BT-474 cells (ATCC, Lot #HTB-20). The cells in exponential growth stage were collected and counted for tumor inoculation. 0.2 mL of matrix gel buffer (PBS: Matrigel=1:1) was used to subcutaneously inject 2×10^6 cells into the right flank of SPF female BALB/c nude mice aged 6-8 weeks. Four days before cell inoculation, BALB/c nude mice had been subcutaneously inoculated with estrogen tablet.
(§1) II. 10 days after inoculation, the tumor diameter was measured with a caliper and the tumor volume was calculated according to the formula V=0.5 a×b2 (wherein a is the long diameter of the tumor and b is the short diameter of the tumor). […] Each group included 6 mice. The day of first administration was defined as day 0. […] The tumor volume of mice in each group was measured twice a week.

[2] = system: HCC1954 cells (breast cancer HER2-high CDX model); assay: In vivo efficacy of GQ01 with chemotherapies in human breast cancer CDX model, HCC1954 (Example 6); set-up: species or system BALB/c nude mice; details: for Tumor volume (mm^3), Mean ± SEM: end day (day 32)
Method: I. HCC1954 cells in exponential growth stage were collected and counted for tumor inoculation. 0.2 mL of matrix gel buffer (PBS: Matrigel=1:1) was used to subcutaneously inject 1×10^6 cells into the right flank of SPF female BALB/c nude mice aged 6-8 weeks.
as §1, with “9” for “10”

[3] = capecitabine 300 mg/kg QD 2 weeks, combination 5 + 300 mg/kg
[4] = capecitabine 300 mg/kg QD 2 weeks, combination 5 + 300 mg/kg, listed as capecitabine
[5] = paclitaxel 10 mg/kg BIW 4 weeks, combination 5 + 10 mg/kg
[6] = paclitaxel 10 mg/kg BIW 4 weeks, combination 5 + 10 mg/kg, listed as paclitaxel

## CCCCCOC(=O)Nc1nc(=O)n([C@@H]2O[C@H](C)[C@@H](O)[C@H]2O)cc1F [Capecitabine, capecitabine]
[1]; [3]
  TGI (%): 21.01%
  Tumor volume (mm^3), Mean ± SEM: 858 ± 280 mm^3
[1]; [4]
  TGI (%): 21.01%
  Tumor volume (mm^3), Mean ± SEM: 858 mm^3
[2]; table prints GQ01 5 mg/kg and 5 + 300 mg/kg, text GQ01 2 mg/kg single dose, capecitabine 300 mg/kg QD 2 weeks
  Tumor volume (mm^3), Mean ± SEM: 1,183 ± 222 mm^3
[2]; table prints GQ01 5 mg/kg and 5 + 300 mg/kg, text GQ01 2 mg/kg single dose, capecitabine 300 mg/kg QD 2 weeks, listed as capecitabine
  Tumor volume (mm^3), Mean ± SEM: 1183 mm^3
[2]; text: day 32, footnote: day 25, table prints GQ01 5 mg/kg and 5 + 300 mg/kg, text GQ01 2 mg/kg single dose, capecitabine 300 mg/kg QD 2 weeks
  TGI (%): 29.05%
[2]; text: day 32, footnote: day 25, table prints GQ01 5 mg/kg and 5 + 300 mg/kg, text GQ01 2 mg/kg single dose, capecitabine 300 mg/kg QD 2 weeks, listed as capecitabine
  TGI (%): 29.05%

## CC(=O)O[C@H]1C(=O)[C@@]2(C)[C@H]([C@H](OC(=O)c3ccccc3)[C@]3(O)C[C@H](OC(=O)[C@H](O)[C@@H](NC(=O)c4ccccc4)c4ccccc4)C(C)=C1C3(C)C)[C@]1(OC(C)=O)CO[C@@H]1C[C@@H]2O [Paclitaxel, paclitaxel]
[1]; [5]
  TGI (%): 58.54%
  Tumor volume (mm^3), Mean ± SEM: 520 ± 87 mm^3
[1]; [6]
  TGI (%): 58.54%
  Tumor volume (mm^3), Mean ± SEM: 520 mm^3
[2]; day 32, GQ01 2 mg/kg single dose, paclitaxel 10 mg/kg BIW 4 doses, combination 2 + 10 mg/kg, trastuzumab 5 + pertuzumab 5 (single dose) + paclitaxel 10 mg/kg
  TGI (%): 26.60%
[2]; day 32, GQ01 2 mg/kg single dose, paclitaxel 10 mg/kg BIW 4 doses, combination 2 + 10 mg/kg, trastuzumab 5 + pertuzumab 5 (single dose) + paclitaxel 10 mg/kg, listed as paclitaxel
  TGI (%): 26.60%
[2]; GQ01 2 mg/kg single dose, paclitaxel 10 mg/kg BIW 4 doses, combination 2 + 10 mg/kg, trastuzumab 5 + pertuzumab 5 (single dose) + paclitaxel 10 mg/kg
  Tumor volume (mm^3), Mean ± SEM: 1,219 ± 124 mm^3
[2]; GQ01 2 mg/kg single dose, paclitaxel 10 mg/kg BIW 4 doses, combination 2 + 10 mg/kg, trastuzumab 5 + pertuzumab 5 (single dose) + paclitaxel 10 mg/kg, listed as paclitaxel
  Tumor volume (mm^3), Mean ± SEM: 1219 mm^3
